Measured values from patent publication US7009053B2, “Quinoline derivatives as caspase-3 inhibitor, preparation for producing the same and pharmaceutical composition comprising the same” (Yungjin Pharmaceuticals Co., Ltd., priority 2002, dated 2006).
pIC50: −log10 of the molar value. Where two headings read alike, the source gives them in different places.

How the values were obtained:
Type in all cases: biochemical
Caspase-6 = biological target: T1, Caspase-6 (Homo sapiens, UniProt P55212); assay: Assay of selective inhibitory activity, caspase-6; details: read-out: IC50 against caspase-6
T1 construct: purchased BIOMOL Research Laboratories Inc; host or cells: E. coli
T1 sequence (P55212 24-179 limits assumed): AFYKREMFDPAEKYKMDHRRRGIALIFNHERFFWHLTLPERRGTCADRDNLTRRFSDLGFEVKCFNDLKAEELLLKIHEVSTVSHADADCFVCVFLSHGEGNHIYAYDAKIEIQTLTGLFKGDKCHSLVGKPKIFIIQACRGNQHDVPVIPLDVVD
T1 sequence (P55212 194-293 limits assumed): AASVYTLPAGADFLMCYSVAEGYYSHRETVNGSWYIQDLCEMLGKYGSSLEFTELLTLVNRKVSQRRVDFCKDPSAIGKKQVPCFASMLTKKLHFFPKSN
Description: (§1) To investigate the selectivity on caspase enzyme subtypes, the inhibitory effects of the compounds of this invention on several other members of the caspase family, caspase-1, 6, 7 and 8 were evaluated.
(§2) After 1 hr incubation at 37° C., the release of AFC (7-amino-4-trifluoromethyl-coumarin) was monitored in a fluorometric plate reader (Victor 1420). The excitation and emission wavelengths were 400 nm and 510 nm, respectively. Isotherms from three assays were calculated by computerized nonlinear regression analysis (GraphPad Prism Program, San Diego, Calif.) to yield IC50 values. Caspase-1, 6, 7 and 8 were purchased from BIOMOL Research Laboratories Inc. (Plymouth Meeting, Pa., USA).
(§3) Coumarin-based fluorogenic substrates for each enzyme were obtained from Sigma/RBI (St. Louis, Mo., USA). The compound used in the assay was 8-amino-4-(3-morpholine-4-yl-propylamino)-quinoline-3-carboxylic acid ethyl ester. The enzymatic activity of caspase-1, 6, 7 or 8 was determined by the same procedures as for the caspase-3 assay, except for enzyme or substrate (Table 2).

Caspase-7 = biological target: T2, Caspase-7 (Homo sapiens, UniProt P55210); assay: Assay of selective inhibitory activity, caspase-7; details: read-out: IC50 against caspase-7
T2 construct: purchased BIOMOL Research Laboratories Inc; host or cells: E. coli
T2 sequence (P55210 24-198 limits assumed): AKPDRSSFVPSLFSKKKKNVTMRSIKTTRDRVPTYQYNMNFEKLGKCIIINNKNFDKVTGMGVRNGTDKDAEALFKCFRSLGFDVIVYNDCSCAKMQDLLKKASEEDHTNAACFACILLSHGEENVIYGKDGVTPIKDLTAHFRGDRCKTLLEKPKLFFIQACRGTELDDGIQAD
T2 sequence (P55210 207-303 limits assumed): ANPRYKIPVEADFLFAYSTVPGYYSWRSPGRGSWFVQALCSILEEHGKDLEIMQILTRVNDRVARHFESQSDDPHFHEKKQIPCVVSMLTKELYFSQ
Description: as §1, §2, §3

Caspase-8 = biological target: T3, Caspase-8 (Homo sapiens, UniProt Q14790); assay: Assay of selective inhibitory activity, caspase-8; details: read-out: IC50 against caspase-8
T3 construct: purchased BIOMOL Research Laboratories Inc; host or cells: E. coli
Description: as §1, §2, §3

Caspase-1 = biological target: T4, Caspase-1 (Homo sapiens, UniProt P29466); assay: Assay of selective inhibitory activity, caspase-1; details: read-out: IC50 against caspase-1
T4 construct: purchased BIOMOL Research Laboratories Inc; host or cells: E. coli
T4 sequence (P29466 120-297 limits assumed): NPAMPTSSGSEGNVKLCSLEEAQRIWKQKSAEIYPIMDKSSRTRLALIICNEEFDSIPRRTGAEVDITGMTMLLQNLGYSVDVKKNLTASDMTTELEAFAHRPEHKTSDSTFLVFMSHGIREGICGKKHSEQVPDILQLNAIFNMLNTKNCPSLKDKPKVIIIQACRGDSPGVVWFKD
T4 sequence (P29466 317-404 limits assumed): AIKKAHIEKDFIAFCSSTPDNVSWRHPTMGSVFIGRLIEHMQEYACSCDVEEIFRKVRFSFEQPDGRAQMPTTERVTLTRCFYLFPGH
Description: as §1, §2, §3

[1] = biological target: T5, human recombinant caspase-3 enzyme (Homo sapiens, UniProt P42574); assay: Enzyme assay of caspase-3 inhibition (fluorogenic Ac-DEVD-AFC substrate)
T5 construct: each cDNA encoding p12 and p17 subunits of caspase-3 was PCR-amplified respectively and subcloned into a pET3-a expression vector; made in house; host or cells: E. coli BL21 (DE3), pET3-a vector
T5 sequence (P42574 29-175 limits assumed): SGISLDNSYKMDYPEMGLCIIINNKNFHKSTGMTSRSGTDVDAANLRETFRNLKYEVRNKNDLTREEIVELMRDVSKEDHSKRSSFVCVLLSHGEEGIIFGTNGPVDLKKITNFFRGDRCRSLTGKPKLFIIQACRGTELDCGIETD
T5 sequence (P42574 176-277 limits assumed): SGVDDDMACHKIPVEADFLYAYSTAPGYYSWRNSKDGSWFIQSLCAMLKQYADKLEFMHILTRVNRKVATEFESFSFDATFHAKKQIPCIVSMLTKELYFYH
Description: The active form of human recombinant caspase-3 enzyme was prepared from Escherichia coli (E.coli) heterologous expression system as described previously (Rotonda J. et al., Nat Struct Biol 3(7): 617–25, 1996). Briefly, each cDNA encoding p12 and p17 subunits of caspase-3 was PCR-amplified respectively and subcloned into a pET3-a expression vector (Novagen), which was followed by transfection into E. coli strain BL21 (DE3). The bacterial cultures (0.5 liters for each transfectant) were grown at 37° C. until logarithmic phase of cell growth and isopropyl-1-thio-β-D-galactopyranoside (IPTC) (Pharmacia) was then added to a final concentration of 0.5 mM. After 3 hr of incubation, the bacteria were pelleted and lysed in a lysis buffer (20 mM Tris hydrochloride pH 8.0, 1 mM EDTA, 2 mM dithiothreitol (DTT), 100 mM NaCl, 200 ug/ml of lysozyme) through sonication. After centrifugation, the pellets from each transfectants were dissolved in 6 M urea and were mixed and rapidly diluted 50 fold in 100 mM HEPES/KOH (pH 7.5), 10% sucrose, 0.1% CHAPS, 0.5 M NaCl, 10 mM DTT. The concentration of protein was determined with the Bradford method (Bio-Rad), with bovine serum albumin as the standard. To verify whether expected size of proteins were obtained, the cell lysates from each cDNA transfectants were analyzed on 14% SDS PAGE and visualized with Coomassie blue staining.
200 ul of the following assay solution was contained in each well of 96-well plate: 20 mM HEPES/KOH (pH 7.5), 10% sucrose, 10 mM DTT, 0.2 mM EDTA, 0.1% CHAPS, 200 ng of enzymes, and 2.5 uM of the substrate. The fluorogenic substrate […]-Asp-Glu-Val-Asp-7-amino-4-trifluoromethylcoumarin (Ac-DEVD-AFC) was purchased from Sigma (St Louis, Mo.) and dissolved in DMSO as a 2.5 mM stock solution and kept at −20° C. before use.
After 1 hr incubation at 37° C., the release of AFC (7-amino-4-trifluoromethyl-coumarin) was monitored in a fluorometric plate reader (Victor 1420). The excitation and emission wavelengths were 400 nm and 510 nm, respectively. The inhibitory effects of compounds on enzyme activities were determined with 2, 20 or 200 uM concentrations of the test compound run in triplicate tubes, and isotherms from three assays were calculated by computerized nonlinear regression analysis (GraphPad Prism Program, San Diego, Calif.) to yield IC50 values.

T3 sequence (Q14790 217-374 limits assumed): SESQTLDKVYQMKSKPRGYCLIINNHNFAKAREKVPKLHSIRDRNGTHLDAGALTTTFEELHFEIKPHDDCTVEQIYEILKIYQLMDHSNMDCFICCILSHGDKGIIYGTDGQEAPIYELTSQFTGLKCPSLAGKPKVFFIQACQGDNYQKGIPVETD
T3 sequence (Q14790 385-479 limits assumed): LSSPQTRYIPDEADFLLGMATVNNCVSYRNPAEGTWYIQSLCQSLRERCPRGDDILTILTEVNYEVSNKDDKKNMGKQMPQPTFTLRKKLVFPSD

- pIC50 (Caspase-6): ≤ 3.70
- pIC50 (Caspase-7): 4.83
- pIC50 (Caspase-8): ≤ 3.70
- pIC50 (Caspase-1): ≤ 3.70
- pIC50 ([1]; caspase-3, Table 1, tested at 2, 20 or 200 uM, read-out: IC50): 4.86
- inhibition at 20 µM ([1]; caspase-3 activity, at 20 uM): 92.3%
- inhibitory activity against caspase-3 (in words) ([1]; compared to the reference compound): superior activity
- pIC50 ([1]; selectivity study, text b424, read-out: IC50 against caspase-3): 5.25
Compound: CCOC(=O)c1cnc2c(N)cccc2c1NCCCN1CCOCC1 [Example 22, 8-Amino-4-(3-morpholin-4-yl-propylamino)-quinoline-3-carboxylic acid ethyl ester]
